Assay results from PubChem BioAssay (NCI).
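Assay format: 96-well plates, 48-hour exposure. At the GI50, growth is halved. TGI denotes the concentration required for complete inhibition of growth.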

What was measured:
Test in all cases: NCI anticancer screen, dose series, 48 h
[1] = tested on: MCF7 breast
[2] = tested on: TK-10 renal
[3] = tested on: NCI-H226 lung
[4] = tested on: NCI-H460 lung
[5] = tested on: K-562 leukemia
[6] = tested on: NCI-H23 lung
[7] = tested on: HT29 colon
[8] = tested on: KM12 colon
[9] = tested on: SW-620 colon
[10] = tested on: ACHN renal

| Structure (SMILES) | GI50 [1] | TGI [1] | GI50 [2] | TGI [2] | GI50 [3] | TGI [3] | GI50 [4] | TGI [4] | GI50 [5] | TGI [5] | GI50 [6] | TGI [6] | GI50 [7] | TGI [7] | GI50 [8] | TGI [8] | GI50 [9] | TGI [9] | GI50 [10] | TGI [10] |
| --- | --- | --- | --- | --- | --- | --- | --- | --- | --- | --- | --- | --- | --- | --- | --- | --- | --- | --- | --- | --- |
| Nc1c(C(=O)Nc2cccc(Br)c2)sc2nc3c(cc12)C(O)CCC3 (stereo not given) | 0.289 µM | > 64.2 µM | 14.2 µM | 51.6 µM | 0.936 µM | 54.4 µM | 0.375 µM | 22 µM | 0.12 µM | > 38.4 µM | 0.761 µM | > 100 µM | 0.319 µM | 11 µM | 0.399 µM | > 51 µM | 0.4 µM | > 82 µM | 0.848 µM | 31.1 µM |
| O=C(Nc1cc(-c2cccnc2)nc(NCCCN2CCOCC2)n1)c1cc(Br)cc(C(F)(F)F)c1 | 2.17 µM | 9.22 µM | 5.07 µM | 18.1 µM | 9.3 µM | 22.7 µM | 2.97 µM | 8.94 µM | 2.8 µM | 21.7 µM | 3.55 µM | 15 µM | 2.12 µM | 4.95 µM | 3.62 µM | 13.6 µM | 2.25 µM | 5.48 µM | 3.04 µM | 11.3 µM |
| Cc1cc(S(=O)(=O)Nc2nc3cc(Cl)ccc3o2)c(SCc2ccccc2)cc1Cl | 24.9 µM | 60.5 µM | 25.8 µM | 55.1 µM | 38.5 µM | > 100 µM | 21.7 µM | 58.5 µM | 46.2 µM | > 100 µM | 26.5 µM | 54.2 µM | 39.9 µM | > 100 µM | 18.9 µM | 45.5 µM | 19.2 µM | 38.5 µM | 18.5 µM | 34.9 µM |
| COc1cc([C@@H]2c3cc4c(cc3C(OC3O[C@@H]5COC(C)O[C@H]5[C@H](O)[C@H]3O)C3COC(=O)[C@@H]32)OCO4)cc(OC)c1O (stereo not given in full) | 0.254 µM | > 50 µM | 3.56 µM | 15.4 µM | 0.792 µM | 7.25 µM | 0.116 µM | 6.88 µM | 1.53 µM | > 30.3 µM | 0.652 µM | 6.88 µM | 5.42 µM | 20.3 µM | 2.46 µM | > 24.4 µM | 0.67 µM | > 27.2 µM | 1.27 µM | > 25 µM |
